These results are taken from patent publication US20190231791A1, “Combination Therapy” (Eli Lilly and Company, priority 2016, published 2019).

Where two headings read alike, the source gives them in different places.

One assay concerns the target T1, human BACE2 (1-460):Fc (Homo sapiens, UniProt Q9Y5Z0).
T1 construct: 10 μL of 200 picomolar human BACE2 (1-460):Fc in the same reaction buffer; made in house; host or cells: HEK293 (transient transfection, purified from conditioned media by Protein A)
T1 sequence (Q9Y5Z0 21-460): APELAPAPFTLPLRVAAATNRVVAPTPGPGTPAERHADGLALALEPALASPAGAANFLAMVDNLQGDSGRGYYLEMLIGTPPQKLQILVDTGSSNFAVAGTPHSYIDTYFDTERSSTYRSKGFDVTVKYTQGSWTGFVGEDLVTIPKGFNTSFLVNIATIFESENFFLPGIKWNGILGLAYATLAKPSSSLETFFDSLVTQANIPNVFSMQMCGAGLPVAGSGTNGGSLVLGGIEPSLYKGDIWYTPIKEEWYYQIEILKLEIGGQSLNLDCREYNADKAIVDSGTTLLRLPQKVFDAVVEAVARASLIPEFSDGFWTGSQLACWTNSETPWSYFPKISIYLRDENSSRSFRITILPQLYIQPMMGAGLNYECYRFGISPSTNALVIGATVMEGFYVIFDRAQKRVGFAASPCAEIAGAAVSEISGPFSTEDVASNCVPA
In words: BACE2 MBP-C125Swe assay. It is filed as biochemical. Here is the method: (§1) To assess selectivity of BACE1 over BACE2, the test compound is evaluated in FRET and immunoassay detection base enzymatic assays using specific substrates for BACE1 and BACE2 as described below. For in vitro enzymatic and cellular assays, the test compound is prepared in DMSO to make up a 10 mM stock solution. The stock solution is serially diluted in DMSO to obtain a ten-point dilution curve with final compound concentrations ranging from 10 μM to 0.05 nM in a 96-well round-bottom plate before conducting the in vitro enzymatic and whole cell assays.
Human BACE1 (accession number: AF190725) and human BACE2 (accession number: AF 204944) are cloned from total brain cDNA by RT-PCR. The nucleotide sequences corresponding to amino acid sequences #1 to 460 are inserted into the cDNA encoding human IgG1 (Fc) polypeptide (Vassar et al., Science, 286, 735-742 (1999)). This fusion protein of BACE1(1-460) or BACE2(1-460) and human Fc, named huBACE1:Fc and huBACE2:Fc respectively, are constructed in the pJB02 vector. […]
Conditioned media of HEK293 cells transiently transfected with huBACE1:Fc or huBACE2:Fc cDNA are collected. […] The purity of final product is assessed by electrophoresis in 4-20% Tris-Glycine SDS-PAGE. […]
10 point serial dilutions of test compounds are prepared in the appropriate range. […] The amount of product is measured by ELISA using MBP-C26swe standard. […]

A further assay deals with T2, BACE1 (Homo sapiens, UniProt P56817).
T2 construct: endogenous in cells; host or cells: SH-SY5Y (ATCC CRL2266) stably expressing human APP695Wt
T2 sequence (P56817 46-501): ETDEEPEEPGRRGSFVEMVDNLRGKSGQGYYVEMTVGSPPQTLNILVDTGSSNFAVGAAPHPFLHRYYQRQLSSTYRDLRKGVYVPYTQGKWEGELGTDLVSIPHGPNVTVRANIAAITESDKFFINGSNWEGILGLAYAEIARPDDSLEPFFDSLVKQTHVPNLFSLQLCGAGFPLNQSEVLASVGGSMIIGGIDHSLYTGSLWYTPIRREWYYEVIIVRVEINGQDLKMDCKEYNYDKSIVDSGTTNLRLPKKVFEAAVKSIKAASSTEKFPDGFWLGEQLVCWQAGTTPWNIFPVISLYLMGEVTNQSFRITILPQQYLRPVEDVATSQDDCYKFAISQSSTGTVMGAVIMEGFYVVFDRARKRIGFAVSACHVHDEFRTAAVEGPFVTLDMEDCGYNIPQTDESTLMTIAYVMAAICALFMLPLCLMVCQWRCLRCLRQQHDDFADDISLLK
Put plainly: SH-SY5YAPP695Wt whole cell assay (Abeta ELISA). In kind it is cell-based. The following applies: 24 hours incubation. Here is the method:
as §1
The routine whole cell assay for the measurement of inhibition of BACE1 activity utilizes the human neuroblastoma cell line SH-SYSY (ATCC Accession No. CRL2266) stably expressing a human APP695Wt cDNA. Cells are routinely used up to passage number 6 and then discarded.
SH-SY5YAPP695Wt cells are plated in 96 well tissue culture plates at 5.0×10^4 cells/well in 200 μL culture media (50% MEM/EBSS and Ham's F12, 1× each sodium pyruvate, non-essential amino acids and NaHCO3 containing 10% FBS). […]
At the end of the incubation, conditioned media are analyzed for evidence of beta-secretase activity by analysis of Abeta peptides 1-40 and 1-42 by specific sandwich ELISAs. […]
A general note: An ELISA detects its analyte on a solid surface through an enzyme-linked reagent.

Another assay addresses T3, beta-secretase (Mus musculus, UniProt P56818).
T3 construct: from tissue; host or cells: brain (hippocampus, cortex) of young female PDAPP mice, in vivo dosing
In words: In vivo inhibition of beta-secretase, brain Abeta 1-x in PDAPP mice. To be noted: young female PDAPP mice, three hours after dosing, vs vehicle, p<0.01. The source says:
Several animal models, including mouse, guinea pig, dog, and monkey, may be used to screen for inhibition of beta-secretase activity in vivo following compound treatment. Animals used in this invention can be wild type, transgenic, or gene knockout animals. For example, the PDAPP mouse model, prepared as described in Games et al., Nature 373, 523-527 (1995), and other non-transgenic or gene knockout animals are useful to analyze in vivo inhibition of Abeta and sAPPbeta production in the presence of inhibitory compounds. Generally, 2 month old PDAPP mice, gene knockout mice or non-transgenic animals are administered compound formulated in vehicles, such as corn oil, beta-cyclodextran, phosphate buffers, PHARMASOLVE®, or other suitable vehicles via oral, subcutaneous, intra-venous, feeding, or other route of administration. 1 to 24 hours following the administration of compound, animals are sacrificed, and brains are removed for analysis of Abeta 1-x. “Abeta 1-x” as used herein refers to the sum of Abeta species that begin with residue 1 and end with a C-terminus greater than residue 28. This detects the majority of Abeta species and is often called “total Abeta”. Total Abeta peptides (Abeta 1-x) levels are measured by a sandwich ELISA, using monoclonal 266 as a capture antibody and biotinylated 3D6 as reporting antibody. (See May, et al., Journal of Neuroscience, 31, 16507-16516 (2011)).
For acute studies, compound or appropriate vehicle is administered and animals are sacrificed at about 3 hours after dosing. Brain tissue, is obtained from selected animals and analyzed for the presence of Abeta 1-x. After chronic dosing brain tissues of older APP transgenic animals may also be analyzed for the amount of beta-amyloid plaques following compound treatment.
For example, a 0.1, 0.3, and 1 mg/kg oral dose of Example 1, to young female PDAPP mice reduced Abeta 1-x peptide levels in brain hippocampus by 32%, 40%, and 55% (all values p<0.01), respectively.

T3 sequence (P56818 46-501): as the sequence (P56817 46-501) above, with P6S, V162I, L165I, S180T, V182A, I340V, L393A, Q443H counted along it

For `CC(F)(F)[C@H]1OC[C@]2(c3cc(NC(=O)c4ccc(C#N)cn4)ccc3F)N=C(N)SC[C@H]12` [Example 1, N-[3-[(4aS,5S,7aS)-2-Amino-5-(1,1-difluoroethyl)-4,4a,5,7-tetrahydrofuro[3,4-d][1,3]thiazin-7a-yl]-4-fluoro-phenyl]-5-cyano-pyridine-2-carboxamide], the “selectivity for BACE1 over BACE2 (BACE2 IC50 / BACE1 IC50)” value on human BACE2 (1-460):Fc was “approximately 35 fold”. In addition, the IC50 is 0.157 nM on BACE1 (± 0.048, n=4, read-out: IC50 for SH-SY5YAPP695Wt A-beta (1-40) ELISA) and 0.177 nM on BACE1 (± 0.050, n=4, read-out: IC50 for SH-SY5YAPP695Wt A-beta (1-42) ELISA). The “reduction of Abeta 1-x levels in brain cortical tissue” value on beta-secretase (0.1 mg/kg oral) stood at 38%; on beta-secretase (0.3 mg/kg oral), 50%; on beta-secretase (1 mg/kg oral) it was 67%. Besides, the “reduction of Abeta 1-x peptide levels in brain hippocampus” value was 32% on beta-secretase (0.1 mg/kg oral), 40% at beta-secretase (0.3 mg/kg oral) and 55% at beta-secretase (1 mg/kg oral).

The IC50 is the concentration that inhibits the measured activity by half.
